The IC50 is the concentration at which inhibition is half-maximal.

Like-named read-outs stand apart in the source and are kept apart here.

Experiment [1] deals with Mino. The experiment is described as follows: Cytotoxicity of linker-drug complex, Mino. Format: cell-based. The settings on record: Homo sapiens. The procedure:
(§1) The cytotoxicity of the linker-drug complex itself prepared to contain beta-galactosidase was evaluated. Specifically, each of the linker-drug complexes dissolved in DMSO was serially diluted 3× from 200 nM to 30 pM in a medium for cell culture to prepare a sample, and various cancer cell lines were treated with the sample to finally expose the cells to 100 nM to 15 pM the linker-drug complexes. The cells were cultured for 6 days, cell viability was observed using a CCK-8 cell-counting kit and cytotoxicity was evaluated.

Experiment [2] has as its system Jeko-1. The experiment is described as follows: Cytotoxicity of linker-drug complex, Jeko-1. Format: cell-based. Conditions: Homo sapiens. The procedure:
as §1

For experiment [3], the system named is Daudi. The experiment can be described thus: Cytotoxicity of linker-drug complex, Daudi. Format: cell-based. The settings on record: Homo sapiens. The procedure:
as §1

Experiment [4] deals with Raji. The experiment is described as follows: Cytotoxicity of linker-drug complex, Raji. The settings on record: Homo sapiens. Format: cell-based. The procedure:
as §1

For experiment [5], the system named is 697. The experiment is described as follows: Cytotoxicity of linker-drug complex, 697. The class given is cell-based. The procedure: as §1
Experiment [6] concerns jurkat. The experiment can be described thus: Cytotoxicity of linker-drug complex, jurkat. Format: cell-based. Conditions: Homo sapiens. The procedure:
as §1

In experiment [7] the test system is H929. The experiment is described as follows: Cytotoxicity of linker-drug complex, H929. The class given is cell-based. The settings on record: Homo sapiens. The procedure:
as §1

Experiment [8] has as its system OPM-2. The experiment can be described thus: Cytotoxicity of linker-drug complex, OPM-2. The class given is cell-based. The settings on record: Homo sapiens. The procedure:
as §1

In experiment [9] the test system is U266. The experiment can be described thus: Cytotoxicity of linker-drug complex, U266. Format: cell-based. Conditions: Homo sapiens. The procedure:
as §1

The test system of experiment [10] is Calu-6. The experiment is described as follows: Cytotoxicity of linker-drug complex, Calu-6. The settings on record: Homo sapiens. The class given is cell-based. The procedure: as §1
In experiment [11] the test system is HCC1954. The experiment is described as follows: Cytotoxicity of linker-drug complex, HCC1954. Format: cell-based. The settings on record: Homo sapiens. The procedure:
as §1

For experiment [12], the system named is JIMT1. The experiment is described as follows: Cytotoxicity of linker-drug complex, JIMT1. The class given is cell-based. The settings on record: Homo sapiens. The procedure: as §1
Experiment [13] deals with NCI-N87. The experiment can be described thus: Cytotoxicity of linker-drug complex, NCI-N87. Format: cell-based. The settings on record: Homo sapiens. The procedure:
as §1

Experiment [14] deals with T1, NaPi2b (UniProt O95436 1-690, limits assumed).
T1 sequence (looked up): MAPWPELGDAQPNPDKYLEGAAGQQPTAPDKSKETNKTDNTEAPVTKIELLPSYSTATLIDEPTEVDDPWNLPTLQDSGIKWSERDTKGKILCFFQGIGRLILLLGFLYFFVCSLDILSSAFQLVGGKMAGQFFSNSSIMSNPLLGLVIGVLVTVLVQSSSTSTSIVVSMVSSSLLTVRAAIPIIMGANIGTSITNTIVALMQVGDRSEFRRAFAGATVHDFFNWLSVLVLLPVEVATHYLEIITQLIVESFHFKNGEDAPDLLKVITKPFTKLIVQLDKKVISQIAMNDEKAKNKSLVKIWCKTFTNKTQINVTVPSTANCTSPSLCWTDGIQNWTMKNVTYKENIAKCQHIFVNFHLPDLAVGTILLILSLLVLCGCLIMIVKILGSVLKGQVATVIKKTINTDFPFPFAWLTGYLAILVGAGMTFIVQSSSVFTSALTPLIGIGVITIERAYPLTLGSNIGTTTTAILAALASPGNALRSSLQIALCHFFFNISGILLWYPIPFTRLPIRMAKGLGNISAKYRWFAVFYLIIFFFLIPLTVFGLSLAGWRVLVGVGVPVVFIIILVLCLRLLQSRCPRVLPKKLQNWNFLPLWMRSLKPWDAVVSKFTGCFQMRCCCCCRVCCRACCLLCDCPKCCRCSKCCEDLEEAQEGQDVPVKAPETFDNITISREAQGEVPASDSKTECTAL
The experiment can be described thus: cell-based or functional assay.

The target in experiment [15] is T1, NaPi2b. The experiment is described as follows: cell-based or functional assay. This is another data set of the same source.
Experiment [16] has as its target T2, CLL-1 (UniProt Q5QGZ9 1-265, limits assumed).
T2 sequence (looked up): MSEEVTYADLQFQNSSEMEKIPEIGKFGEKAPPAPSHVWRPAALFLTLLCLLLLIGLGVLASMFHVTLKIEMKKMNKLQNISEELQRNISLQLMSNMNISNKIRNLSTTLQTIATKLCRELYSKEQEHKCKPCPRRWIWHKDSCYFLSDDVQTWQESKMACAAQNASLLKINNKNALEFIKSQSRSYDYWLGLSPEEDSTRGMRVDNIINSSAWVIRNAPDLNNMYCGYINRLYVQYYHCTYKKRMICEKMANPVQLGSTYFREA
The experiment is described as follows: cell-based or functional assay.

On to `O=C(CCCCCN1C(=O)C=CC1=O)NCCOc1cc(/C=C/C(=O)N2C[C@@H](CCl)c3c2cc(O[C@@H]2O[C@H](CO)[C@H](O)[C@H](O)[C@H]2O)c2ccccc32)ccc1/C=C/C(=O)N1C[C@@H](CCl)c2c1cc(O[C@@H]1O[C@H](CO)[C@H](O)[C@H](O)[C@H]1O)c1ccccc21` [PD001], for which the half-maximal inhibitory concentration (IC50) in experiment [1] (144 h, read-out: IC50 #1) turned out to be 3.26 nM; in [1] (144 h, read-out: IC50 #2), 2.34 nM; in experiment [1] (read-out: IC50 Mean) it was 2.76 nM; in experiment [2] (JeKo-1, 144 h, read-out: IC50 #1), 13.1 nM; in [2] (JeKo-1, read-out: IC50 #2), 31.7 nM; in [2] (JeKo-1, read-out: IC50 Mean) it was 20.4 nM. For the same molecule, the IC50 is 12.5 nM in experiment [3] (144 h, read-out: IC50 #1); 9.46 nM in experiment [3] (read-out: IC50 #2); 10.9 nM in [3] (read-out: IC50 Mean); 30.8 nM in experiment [4] (144 h, Burkitt's lymphoma, run #1, 6 days, CCK-8, read-out: IC50 #1); 18.4 nM in experiment [4] (mean of #1 and #2, read-out: IC50 Mean); 11 nM in experiment [4] (run #2, read-out: IC50 #2). In addition, the IC50 in [5] (144 h, read-out: IC50 #1) was 4.78 nM; in experiment [5] (read-out: IC50 #2), 3.72 nM; in experiment [5] (read-out: IC50 Mean) it was 4.22 nM; in experiment [6] (144 h, read-out: IC50 #1), 14.5 nM; in [6] (read-out: IC50 #2) it was 1.12 nM; in [6] (read-out: IC50 Mean) it was 12.7 nM. The concentration for half-maximal inhibition (IC50) in [7] (NCI-H929, 144 h, read-out: IC50 #1) was 20.3 nM; in [7] (NCI-H929, read-out: IC50 #2), 26.4 nM; in experiment [7] (NCI-H929, read-out: IC50 Mean), 23.1 nM; in [8] (OPM-2, 144 h, read-out: IC50 #1), 26.2 nM; in experiment [8] (OPM-2, read-out: IC50 #2), 25.6 nM; in experiment [8] (OPM-2, read-out: IC50 Mean) it was 25.9 nM. Further, the IC50 in experiment [9] (U-266, 144 h, read-out: IC50 #1) was found to be 7.97 nM; in [9] (U-266, read-out: IC50 #2), 5.61 nM; in experiment [9] (U-266, read-out: IC50 Mean), 6.69 nM; in experiment [10] (Calu-6, 144 h, read-out: IC50 #1), 58.9 nM; in [10] (Calu-6, read-out: IC50 #2), 52.2 nM; in [10] (Calu-6, read-out: IC50 Mean), 55.4 nM. In addition, the IC50 in [11] (HCC1954, 144 h, read-out: IC50 #1) came to 25 nM; in [11] (HCC1954, read-out: IC50 #2) it was 16.4 nM; in [11] (HCC1954, read-out: IC50 Mean) it was 20.2 nM; in experiment [12] (JIMT-1, 144 h, read-out: IC50 #1), 47 nM; in [12] (JIMT-1, read-out: IC50 #2), 24.9 nM; in experiment [12] (JIMT-1, read-out: IC50 Mean) it was 34.2 nM. Also, the IC50 in [13] (NCI-N87, 144 h, read-out: IC50 #1) worked out at 8.06 nM; in experiment [13] (NCI-N87, read-out: IC50 #2), 9.09 nM; in [13] (NCI-N87, read-out: IC50 Mean) it was 8.56 nM.

B1: D20002 (10H1-PD001) (antibody, human IgG1, kappa, V domains shown)
VH: EVQLVESGGGLVQPGGSLRLSCAASGFSFSDFAMSWVRQAPGKGLEWVATIGRVAFHTYYPDSMKGRFTISRDNSKNTLYLQMNSLRAEDTAVYYCARHRGFDVGHFDFWGQGTLVTVSS
VL: DIQMTQSPSSLSASVGDRVTITCRSSETLVHSSGNTYLEWYQQKPGKAPKLLIYRVSNRFSGVPSRFSGSGSGTDFTLTISSLQPEDFATYYCFQGSFNPLTFGQGTKVEIKR
modifications: linker-drug PD001 conjugated to a cysteine put in place of lysine 149 (Kabat numbering) of the light chain
In the case of B1, in [14], the “IC50, cytotoxicity on OVCAR-3” value is 1.53 nM and the “non-binder/binder ratio on OVCAR-3” value is at least 100. In addition, in experiment [15], the “IC50 (nM), cytotoxicity on OVCAR3” value is 1.5 nM.

B2: D20502 (6E7-PD009) (antibody, human IgG1, kappa, V domains shown)
VH: B1 VH
VL: DIQMTQSPSSLSASVGDRVTITCRASQSVSTSSYNYMHWYQQKPGKPPKLLIKYASNLESGVPSRFSGSGSGTDFTLTISSLQPEDFATYYCQHSWEIPLTFGQGTKVEIKR
modifications: linker-drug PD009 conjugated to a cysteine put in place of lysine 149 (Kabat numbering) of the light chain
On to B2, for which the “IC50 (nM), cytotoxicity on EDL-1 (AML)” value in experiment [16] is 0.3 nM.
